In patent US4001237A, “Oxazole, isoxazole, thiazole and isothiazole amides” (priority 1976, dated 1977):

Test: Clinical use as antihypertensive agent in humans (literature reports)
Assay type: in vivo, human
Details: clinical daily dose ranges 150 to 500 mg. versus 1.5 to 15 mg.

With COc1cc2c(N)nc(N3CCN(C(=O)OCC(C)(C)O)CC3)nc2c(OC)c1OC [Trimazosin] the “weaker than prazosin at the lower end of the clinical daily dosage range” value was 100 fold.
